{
  "source": "patent US5491220A",
  "about": "“Surface loop structural analogues of fibroblast growth factors” (Yeda Research and Development Co., Ltd., priority 1994, dated 1996)",
  "tested_on": "neovascularization",
  "experiment": "In vivo angiogenesis, rabbit ear chamber model",
  "experimental": "In an in vivo model of angiogenesis, FGF-2LI is evaluated using the rabbit ear chamber system modified and improved by Howden, G. F., and Silver, I. A., (Int. Endodontic J. 13: 3-16 (1980)), observing the growth factor-induced neovascularization, or its inhibition, by modified growth factors or other reagents.\nRabbits are sedated using 50-70 mg/kg ketamine and 10 mg/kg xylozine administered intramuscularly. The ears are shaved with an electric hair clipper and cleaned with water, followed by Betadine®. To minimize the risk of infection, the rabbits are given 20,000 units/kg benzathine penicillin intramuscularly prior to insertion of the ear chambers. The chamber is inserted into an approximately 0.75 cm area which is not crossed by any major vessels. During the course of the experiments, observations or any minor handling of ear chambers of the animals is done by sedating the animal using the intramuscular administration of a combination of Butorphanol® and acepromazine at levels of 1 mg/kg each. FGF-2 or FGF-2LI bound to heparin-Sepharose® beads in a controlled-release alginate capsule is contained in one of the ear chambers and the other is used as a control containing only the heparin-Sepharose® alginate capsule vehicle. Thus, the effect of the growth factors and the controlled-release capsule alone can be observed simultaneously in the same animal. […] The animals are kept for 4 to 6 weeks and neovascularization is observed visually and recorded photographically at weekly intervals.\nThe criteria for evaluation of the degree of neovascularization using this procedure is set out below.",
  "data": [
    {"substance": "FGF-2LI: human FGF-2 with loop residues 118-122 replaced by Ala-Gln-Phe-Pro-Asn from human interleukin-1β (SEQ ID NO 15)", "values": [
      {"measurement": "Angiogenesis at 400 ng/chamber", "setting": "400 ng/chamber", "result": "greatly stimulates formation of capillaries and larger vessels"},
      {"measurement": "Concentration range over which stimulatory activity is observed", "setting": "rabbit ear chamber", "result": "0.1-400 ng/chamber"},
      {"measurement": "Potential to induce angiogenesis (neovascularization)", "setting": "rabbit ear chamber, controlled-release alginate capsule", "result": "superior to FGF-2"},
      {"measurement": "Vessel formation in the chamber", "setting": "rabbit ear chamber, versus control chambers", "result": "stimulate large vessel formation"}
    ]}
  ]
}
